Experimental data taken from PubChem BioAssay AID2060888 (Molecular Pharmacology Branch, DTP, NCI, 2025).

System: 695427-040-R-J1-PDC complex spheroid viability
Assay: Anticancer human tumor 695427-040-R-J1-PDC patient-derived colon adenocarcinoma cell line growth inhibition [RAS]
Details: for IC50: curve of first compound; for viability, T/C: stronger effect = lower value
Text: RAS pathway inhibitors in Combinations in Complex Spheroids
A high-throughput screen of multi-cell type tumor spheroids was designed to identify active combinations of RAS pathway inhibitors and targeted small molecules. Complex spheroids include a stromal component modeled by human endothelial cells (HUVEC) and fibroblasts modeled by human mesenchymal stem cells (MSCs). The concentration ranges selected for each drug and investigational agent were based upon clinically achievable concentrations if the clinical Cmax of the agent was known.
Compounds. The drugs and investigational agents: abemaciclib (NSC768073), cobimetinib (NSC768068), divarasib (GDC6063, NSC841802), docetaxel (NSC628503), GDC-1971 (RLY-1971, NSC841576), gemcitabine (NSC613327), inavolisib (NSC800729), ipatasertib (NSC767898), KB-0742 (NSC834161), MRTX-1133 (NSC836407), osimertinib (NSC779217), RMC-4630 (NSC839698), RMC-6236 (NSC851965), RMC-6291 (NSC852671), Ro-3306 (NSC812927), sapanisertib (NSC764658), SN-38 (NSC673596), staurosporine (NSC755774), SY5609 (NSC837396), and tovorafenib (DAY101, NSC766906), were obtained from the National Cancer Institute (NCI) Developmental Therapeutics Program Chemical Repository. The FDA-approved anticancer drug set is available from the NCI Developmental Therapeutics Program. […] The stock solutions were prepared in dimethyl sulfoxide (DMSO, Sigma-Aldrich, St. Louis, MO, cat. D2650) at 800-fold the tested concentration and stored at -70 degrees C prior to their use. All drugs and investigational agents were tested over a range starting from a high concentration at or near the clinical Cmax and decreasing in half-log increments. If the clinical Cmax for an agent had not been determined, the highest concentration tested was 10 microM.
Cell Culture. All cells were maintained in an incubator at 37 degrees C and 5% CO2 with 95% humidity. The PDC lines were cultured according to standard operating procedures established by the NCI PDMR. All PDCs were thawed and cultured in Matrigel-coated flasks prepared with a working solution of 1X Ham's F-12 nutrient mix, without supplementation (Invitrogen, Waltham, MA, cat. 11765054), 100 U/mL penicillin-streptomycin (Invitrogen, cat. 15140122), and 2.5% Matrigel (Corning Inc., Corning, NY, cat. 354248) for the first three passages. The 362531-283-R-J2-PDC and 782815-120-R-J1-PDC lines were cultured in 6C/Colon 1B media, which includes advanced DMEM/F-12 (Thermo Fisher Scientific, cat. 12634028), 10 mM HEPES (Thermo Fisher Scientific, cat. 15630080), 1X GlutaMAX supplement (Thermo Fisher Scientific, cat. 35050061), 0.1 mg/mL primocin (InvivoGen, San Diego, CA, cat. ant-pm-2), 10% defined fetal bovine serum, heat inactivated (HyClone Laboratories Inc., Logan, UT, cat. SH30070.03HI), 50% L-WRN conditioned media (ATCC, cat. CRL-3276), 1.25 mM N-Acetyl-L-cysteine (Sigma-Aldrich, cat. A9165), 10 mM nicotinamide (Sigma-Aldrich, cat. N0636), 1X B-27 supplement (Thermo Fisher Scientific, cat. 17504044), 1X N-2 supplement (Thermo Fisher Scientific, cat. 17502048), 50 ng/mL human EGF (Thermo Fisher Scientific, cat. PHG0311), and 10 microM Y-27632 dihydrochloride (Tocris Bioscience, cat. 1254). The K12877-001-R-J1-PDC line was cultured in 6I media, which includes all 6C/Colon 1B media plus 10 ng/mL human FGF-10 (PeproTech, cat. 100-26), 1 ng/mL human FGF-2 (PeproTech, cat. 100-18B), 1 µM prostaglandin E2 (Tocris Bioscience, cat. 2296), […] hydrocortisone (Sigma-Aldrich, cat. H4001), and […] bovine insulin (Sigma-Aldrich, cat. I6634). The K86415-001-R-J1-PDC line was cultured in 6D media, which includes all 6C/Colon 1B media components minus the L-WRN conditioned media. The 485176-168-R4-J1-PDC was cultured in PANC media, which includes all 6C/Colon 1B media plus 100 ng/mL human FGF-10 (PeproTech, cat. 100-26), 500 nM SB-431542 (Selleckchem, cat. S1067), and 10 nM gastrin (Tocris Bioscience, cat. 3006). […]
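Note: viability read after seven days of drug exposure.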
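Throughout, for viability, T/C: 100% = DMSO vehicle control viability.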

Which IC50 (second compound 0.000949 µM) does the source give for `CC(C)n1nc(-c2ccc3oc(N)nc3c2)c2c(N)ncnc21` + CCn1c(-c2cc(N3CCN(C)CC3)cnc2C(C)OC)c2c3cc(ccc31)-c1csc(n1)CC(NC(=O)C1CC1C)C(=O)N1CCCC(N1)C(=O)OCC(C)(C)C2 here?
The IC50 was 71.9 nM.

What about the IC50 (second compound 0.003 µM) of the same molecule?
Its IC50 is > 100 nM.

What about the IC50 (second compound 0.00949 µM) of the same molecule?
The IC50 was 34.2 nM.

And the IC50 (second compound 0.03 µM)?
The IC50 was 4.03 nM.

And the IC50 (second compound 0.0949 µM)?
The IC50 was < 0.316 nM.

What about the IC50 (second compound 0.3 µM) of the same molecule?
Its IC50 is < 0.316 nM.

What about the viability, T/C (second compound 0.000949 µM, first compound 0.000316 µM) of the same molecule?
The viability, T/C was 100%.

What about the viability, T/C (second compound 0.000949 µM, first compound 0.001 µM) of the same molecule?
The viability, T/C was 86.4%.

And the viability, T/C (second compound 0.000949 µM, first compound 0.00316 µM)?
The viability, T/C was 80.3%.

And the viability, T/C (second compound 0.000949 µM, first compound 0.01 µM)?
The viability, T/C was 81.2%.

And the viability, T/C (second compound 0.000949 µM, first compound 0.0316 µM)?
The viability, T/C was 68.6%.

What about the viability, T/C (second compound 0.000949 µM, first compound 0.1 µM) of the same molecule?
Its viability, T/C is 42%.

What about the viability, T/C (second compound 0.003 µM, first compound 0.000316 µM) of the same molecule?
Its viability, T/C is 98.5%.

And the viability, T/C (second compound 0.003 µM, first compound 0.001 µM)?
The viability, T/C was 84.8%.

And the viability, T/C (second compound 0.003 µM, first compound 0.00316 µM)?
Its viability, T/C is 71.8%.

What about the viability, T/C (second compound 0.003 µM, first compound 0.01 µM) of the same molecule?
The viability, T/C was 68.1%.

What about the viability, T/C (second compound 0.003 µM, first compound 0.0316 µM) of the same molecule?
Its viability, T/C is 66.5%.

What about the viability, T/C (second compound 0.003 µM, first compound 0.1 µM) of the same molecule?
Its viability, T/C is 51.1%.

What about the viability, T/C (second compound 0.00949 µM, first compound 0.000316 µM) of the same molecule?
The viability, T/C was 93.3%.

And the viability, T/C (second compound 0.00949 µM, first compound 0.001 µM)?
The viability, T/C was 68.5%.

What about the viability, T/C (second compound 0.00949 µM, first compound 0.00316 µM) of the same molecule?
Its viability, T/C is 70%.

What about the viability, T/C (second compound 0.00949 µM, first compound 0.01 µM) of the same molecule?
Its viability, T/C is 59.1%.

And the viability, T/C (second compound 0.00949 µM, first compound 0.0316 µM)?
Its viability, T/C is 46.4%.

And the viability, T/C (second compound 0.00949 µM, first compound 0.1 µM)?
The viability, T/C was 46.8%.

What about the viability, T/C (second compound 0.03 µM, first compound 0.000316 µM) of the same molecule?
The viability, T/C was 74.3%.

What about the viability, T/C (second compound 0.03 µM, first compound 0.001 µM) of the same molecule?
Its viability, T/C is 45.1%.

And the viability, T/C (second compound 0.03 µM, first compound 0.00316 µM)?
Its viability, T/C is 55.8%.

And the viability, T/C (second compound 0.03 µM, first compound 0.01 µM)?
Its viability, T/C is 48.6%.

And the viability, T/C (second compound 0.03 µM, first compound 0.0316 µM)?
The viability, T/C was 39.2%.

And the viability, T/C (second compound 0.03 µM, first compound 0.1 µM)?
The viability, T/C was 28.7%.

And the viability, T/C (second compound 0.0949 µM, first compound 0.000316 µM)?
The viability, T/C was 47.6%.

What about the viability, T/C (second compound 0.0949 µM, first compound 0.001 µM) of the same molecule?
Its viability, T/C is 38.6%.

What about the viability, T/C (second compound 0.0949 µM, first compound 0.00316 µM) of the same molecule?
The viability, T/C was 35.4%.

What about the viability, T/C (second compound 0.0949 µM, first compound 0.01 µM) of the same molecule?
The viability, T/C was 32.8%.

What about the viability, T/C (second compound 0.0949 µM, first compound 0.0316 µM) of the same molecule?
The viability, T/C was 30%.

What about the viability, T/C (second compound 0.0949 µM, first compound 0.1 µM) of the same molecule?
The viability, T/C was 21.3%.

What about the viability, T/C (second compound 0.3 µM, first compound 0.000316 µM) of the same molecule?
The viability, T/C was 41%.

What about the viability, T/C (second compound 0.3 µM, first compound 0.001 µM) of the same molecule?
Its viability, T/C is 34.8%.

And the viability, T/C (second compound 0.3 µM, first compound 0.00316 µM)?
The viability, T/C was 27.3%.

And the viability, T/C (second compound 0.3 µM, first compound 0.01 µM)?
The viability, T/C was 28.2%.

What about the viability, T/C (second compound 0.3 µM, first compound 0.0316 µM) of the same molecule?
The viability, T/C was 22.6%.

What about the viability, T/C (second compound 0.3 µM, first compound 0.1 µM) of the same molecule?
The viability, T/C was 15.7%.
